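Where inhibition never reached the appropriate level, the endpoint shown equals the highest concentration tested. Otherwise, values were interpolated linearly from a five-concentration, 48-hour dose response in 96-well plates. TGI is the concentration that stops growth completely.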
Columns and labels:
Assay in all cases: NCI-60 cell line screen, 48 h
[1] = tested on: MOLT-4 leukemia
[2] = tested on: UACC-257 melanoma
[3] = tested on: UO-31 renal
[4] = tested on: IGROV1 ovarian
[5] = tested on: PC-3 prostate
[6] = tested on: HS 578T breast
[7] = tested on: RPMI-8226 leukemia
[8] = tested on: SF-268 CNS
[9] = tested on: COLO 205 colon
[10] = tested on: RXF 393 renal
[11] = tested on: HOP-92 NSCLC
[12] = tested on: NCI/ADR-RES ovarian
[13] = tested on: OVCAR-8 ovarian
[14] = tested on: HT29 colon
[15] = tested on: CAKI-1 renal
[16] = tested on: SNB-19 CNS
[17] = tested on: CCRF-CEM leukemia
[18] = tested on: EKVX NSCLC
[19] = tested on: SF-295 CNS
[20] = tested on: KM12 colon
[21] = tested on: MDA-N
[22] = tested on: SR leukemia
[23] = tested on: NCI-H226 lung
[24] = tested on: SK-MEL-2 melanoma
[25] = tested on: SK-MEL-5 melanoma
[26] = tested on: HL-60(TB) leukemia
[27] = tested on: MDA-MB-435
[28] = tested on: HCC-2998 colon
[29] = tested on: TK-10 renal
[30] = tested on: U251 CNS
[31] = tested on: OVCAR-4 ovarian
[32] = tested on: OVCAR-5 ovarian
[33] = tested on: DU-145 prostate
[34] = tested on: 786-0 renal
[35] = tested on: HCT-116 colon
[36] = tested on: M14 melanoma
[37] = tested on: SW-620 colon
[38] = tested on: A498 renal
[39] = tested on: BT-549 breast
[40] = tested on: NCI-H522 lung
[41] = tested on: NCI-H23 lung
[42] = tested on: SF-539 CNS
[43] = tested on: MALME-3M melanoma
[44] = tested on: NCI-H460 lung
[45] = tested on: A549 NSCLC
[46] = tested on: SN12C renal
[47] = tested on: SK-OV-3 ovarian
[48] = tested on: MCF7 breast
[49] = tested on: HCT-15 colon
[50] = tested on: MDA-MB-231 breast
[51] = tested on: T-47D breast
[52] = tested on: ACHN renal
[53] = tested on: UACC-62 melanoma
[54] = tested on: K-562 leukemia
[55] = tested on: SNB-75 CNS
[56] = tested on: SK-MEL-28 melanoma
[57] = tested on: HOP-62 NSCLC
[58] = tested on: LOX IMVI melanoma
[59] = tested on: OVCAR-3 ovarian

In the case of `CCOS(=O)(=O)c1ccc(-c2c3nc(c(-c4ccc(S(=O)(=O)OCC)cc4)c4ccc([nH]4)c(-c4ccc(S(=O)(=O)OCC)cc4)c4nc(c(-c5ccc(S(=O)(=O)OCC)cc5)c5ccc2[nH]5)C=C4)C=C3)cc1`, the TGI [1] is reported as > 31.6 µM, the TGI [2] is reported as > 31.6 µM and the TGI [3] is reported as > 31.6 µM. The TGI [4] was > 100 µM, the TGI [5] was > 31.6 µM and the TGI [6] was > 31.6 µM. For the same molecule, the TGI [7] was > 31.6 µM, the TGI [8] was > 31.6 µM and the TGI [9] was > 31.6 µM. The TGI [10] was > 31.6 µM, the TGI [11] was > 100 µM and the TGI [12] was > 31.6 µM. For the same molecule, the TGI [13] was > 31.6 µM, the TGI [14] was > 100 µM and the TGI [15] was > 31.6 µM. For the same molecule, the TGI [16] was > 31.6 µM, the TGI [17] was > 31.6 µM and the TGI [18] was > 31.6 µM. The TGI [19] was > 31.6 µM, the TGI [20] was > 31.6 µM and the TGI [21] was > 31.6 µM. For the same molecule, the TGI [22] was > 31.6 µM, the TGI [23] was > 100 µM and the TGI [24] was > 31.6 µM. The TGI [25] was > 31.6 µM, the TGI [26] was > 31.6 µM and the TGI [27] was > 31.6 µM. The TGI [28] was > 31.6 µM, the TGI [29] was > 31.6 µM and the TGI [30] was > 31.6 µM. For the same molecule, the TGI [31] was > 31.6 µM, the TGI [32] was > 31.6 µM and the TGI [33] was > 31.6 µM. The TGI [34] was > 31.6 µM, the TGI [35] was > 31.6 µM and the TGI [36] was > 31.6 µM. For the same molecule, the TGI [37] was > 31.6 µM, the TGI [38] was > 31.6 µM and the TGI [39] was > 31.6 µM. For the same molecule, the TGI [40] was > 31.6 µM, the TGI [41] was > 31.6 µM and the TGI [42] was > 31.6 µM. For the same molecule, the TGI [43] was > 31.6 µM, the TGI [44] was > 31.6 µM and the TGI [45] was > 31.6 µM. The TGI [46] was > 31.6 µM, the TGI [47] was > 31.6 µM and the TGI [48] was > 31.6 µM. The TGI [49] was > 31.6 µM, the TGI [50] was > 31.6 µM and the TGI [51] was > 31.6 µM. For the same molecule, the TGI [52] was > 31.6 µM and the TGI [53] was > 31.6 µM.
In the case of `C=C1CCOC2(C(O)C(C)(O)CO)NC(=O)C1(O)NC2=O` (stereo unspecified), the TGI [1] is reported as > 100 µM, the TGI [2] is reported as > 100 µM and the TGI [3] is reported as > 100 µM. The TGI [4] was > 100 µM, the TGI [54] was > 100 µM and the TGI [5] was > 100 µM. The TGI [6] was > 100 µM, the TGI [7] was > 100 µM and the TGI [8] was > 100 µM. The TGI [9] was > 100 µM, the TGI [55] was > 100 µM and the TGI [10] was > 100 µM. For the same molecule, the TGI [11] was > 100 µM, the TGI [12] was > 100 µM and the TGI [13] was > 100 µM. For the same molecule, the TGI [14] was > 100 µM, the TGI [15] was > 100 µM and the TGI [16] was > 100 µM. The TGI [17] was > 100 µM, the TGI [18] was > 100 µM and the TGI [19] was > 100 µM. For the same molecule, the TGI [20] was > 100 µM, the TGI [21] was > 100 µM and the TGI [22] was > 100 µM. The TGI [23] was > 100 µM, the TGI [56] was > 100 µM and the TGI [57] was > 100 µM. The TGI [24] was > 100 µM, the TGI [25] was > 100 µM and the TGI [26] was > 100 µM. For the same molecule, the TGI [27] was > 100 µM, the TGI [28] was > 100 µM and the TGI [29] was > 100 µM. The TGI [58] was > 100 µM, the TGI [30] was > 100 µM and the TGI [31] was > 100 µM. For the same molecule, the TGI [32] was > 100 µM, the TGI [33] was > 100 µM and the TGI [34] was > 100 µM. The TGI [35] was > 100 µM, the TGI [36] was > 100 µM and the TGI [37] was > 100 µM. For the same molecule, the TGI [38] was > 100 µM, the TGI [39] was > 100 µM and the TGI [40] was > 100 µM. For the same molecule, the TGI [41] was > 100 µM, the TGI [42] was > 100 µM and the TGI [43] was > 100 µM. The TGI [44] was > 100 µM, the TGI [45] was > 100 µM and the TGI [46] was > 100 µM. For the same molecule, the TGI [47] was > 100 µM, the TGI [48] was > 100 µM and the TGI [49] was > 100 µM. For the same molecule, the TGI [50] was > 100 µM, the TGI [51] was > 100 µM and the TGI [59] was > 100 µM. The TGI [52] was > 100 µM and the TGI [53] was > 100 µM.
In the case of `COC(=O)c1c2c(cc3c1CC1(Cc4ccccc4C1)C3)CCC2`, the TGI [1] is reported as 40.2 µM, the TGI [2] is reported as 47 µM and the TGI [3] is reported as > 100 µM. The TGI [4] was > 100 µM, the TGI [54] was 24.3 µM and the TGI [5] was 48.1 µM. The TGI [6] was 79.7 µM, the TGI [7] was 45.8 µM and the TGI [8] was > 100 µM. The TGI [9] was 42.1 µM, the TGI [55] was > 100 µM and the TGI [10] was 52.9 µM. For the same molecule, the TGI [11] was > 100 µM, the TGI [12] was 96.1 µM and the TGI [13] was > 100 µM. The TGI [14] was 34 µM, the TGI [15] was 78.2 µM and the TGI [17] was 40.9 µM. It also gave a TGI [18] of 98.7 µM, a TGI [19] of 61.7 µM and a TGI [20] of 70.2 µM. The TGI [21] was 33.9 µM, the TGI [22] was 54.2 µM and the TGI [23] was > 100 µM. For the same molecule, the TGI [56] was > 100 µM, the TGI [57] was > 100 µM and the TGI [25] was 31.7 µM. For the same molecule, the TGI [26] was 69.5 µM, the TGI [27] was 39.1 µM and the TGI [28] was 98.7 µM. The TGI [29] was > 100 µM, the TGI [58] was 34 µM and the TGI [30] was 48.6 µM. For the same molecule, the TGI [31] was > 100 µM, the TGI [32] was > 100 µM and the TGI [33] was > 100 µM. The TGI [34] was > 100 µM, the TGI [35] was 84.4 µM and the TGI [37] was 39.7 µM. For the same molecule, the TGI [38] was > 100 µM, the TGI [39] was 95.5 µM and the TGI [40] was 35.2 µM. For the same molecule, the TGI [41] was > 100 µM, the TGI [42] was > 100 µM and the TGI [43] was 67.2 µM. The TGI [44] was > 100 µM, the TGI [45] was > 100 µM and the TGI [46] was 95.8 µM. The TGI [47] was > 100 µM, the TGI [48] was 23.4 µM and the TGI [49] was > 100 µM. The TGI [50] was 44.9 µM, the TGI [51] was 43.2 µM and the TGI [59] was 47.6 µM. For the same molecule, the TGI [52] was 86.8 µM and the TGI [53] was 58.8 µM.
`C/C(=N\NC(N)=S)c1nc2ncccc2[nH]1` was tested, and the TGI [1] was > 100 µM, the TGI [2] was > 100 µM and the TGI [3] was 82.1 µM. For the same molecule, the TGI [4] was > 100 µM, the TGI [54] was > 100 µM and the TGI [5] was > 100 µM. For the same molecule, the TGI [6] was > 100 µM, the TGI [7] was > 100 µM and the TGI [8] was > 100 µM. The TGI [9] was > 100 µM, the TGI [55] was > 100 µM and the TGI [10] was > 100 µM. For the same molecule, the TGI [11] was > 100 µM, the TGI [12] was > 100 µM and the TGI [13] was > 100 µM. The TGI [14] was > 100 µM, the TGI [15] was > 100 µM and the TGI [16] was > 100 µM. The TGI [17] was > 100 µM, the TGI [18] was > 100 µM and the TGI [19] was > 100 µM. For the same molecule, the TGI [20] was > 100 µM, the TGI [21] was > 100 µM and the TGI [22] was > 100 µM. For the same molecule, the TGI [23] was > 91.4 µM, the TGI [56] was > 100 µM and the TGI [57] was > 100 µM. For the same molecule, the TGI [24] was > 100 µM, the TGI [25] was > 100 µM and the TGI [26] was > 79.1 µM. For the same molecule, the TGI [27] was > 100 µM, the TGI [28] was > 100 µM and the TGI [29] was > 100 µM. For the same molecule, the TGI [58] was > 100 µM, the TGI [30] was > 100 µM and the TGI [31] was > 100 µM. For the same molecule, the TGI [32] was > 100 µM, the TGI [33] was > 100 µM and the TGI [34] was > 100 µM. For the same molecule, the TGI [35] was > 100 µM, the TGI [36] was > 100 µM and the TGI [37] was > 100 µM. The TGI [38] was > 100 µM, the TGI [39] was > 96.7 µM and the TGI [40] was > 100 µM. The TGI [42] was > 100 µM, the TGI [43] was > 100 µM and the TGI [44] was > 100 µM. For the same molecule, the TGI [45] was > 100 µM, the TGI [46] was > 100 µM and the TGI [47] was > 100 µM. The TGI [48] was > 100 µM, the TGI [49] was > 100 µM and the TGI [50] was > 100 µM. The TGI [51] was > 100 µM, the TGI [59] was > 100 µM and the TGI [52] was > 100 µM. The TGI [53] was > 100 µM.
